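Exposure lasted 48 hours, with cells grown in 96-well plates and compounds tested at five concentrations. Here, GI50 denotes the concentration required for 50% inhibition of growth.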 Calls of active or inactive are those of the source. No stated cut-off is given here; in the data, active = GI50 up to about 1.1 µM and inactive = higher.
Assays:
Assay in all cases: DTP human tumour cell line panel, 48 h
NCI-H460 = test system: NCI-H460
UACC-257 = test system: UACC-257
A549 = test system: A549
MDA-MB-435 = test system: MDA-MB-435
SK-MEL-2 = test system: SK-MEL-2
K562 = test system: K562
HOP-92 = test system: HOP-92
T47D = test system: T47D
A498 = test system: A498
PC-3 = test system: PC-3
RPMI-8226 = test system: RPMI-8226
UO-31 = test system: UO-31
RXF 393 = test system: RXF 393
OVCAR-4 = test system: OVCAR-4
SW-620 = test system: SW-620
CAKI-1 = test system: CAKI-1
SK-MEL-28 = test system: SK-MEL-28
NCI/ADR-RES = test system: NCI/ADR-RES
Malme-3M = test system: Malme-3M
NCI-H522 = test system: NCI-H522
ACHN = test system: ACHN
786-0 = test system: 786-0
HCC 2998 = test system: HCC 2998
UACC-62 = test system: UACC-62
HCT-116 = test system: HCT-116
U-251 = test system: U-251
MDA-MB-231 = test system: MDA-MB-231
Hs-578T = test system: Hs-578T
MDA-N = test system: MDA-N
MOLT-4 = test system: MOLT-4
EKVX = test system: EKVX
CCRF-CEM = test system: CCRF-CEM
MCF7 = test system: MCF7
HOP-62 = test system: HOP-62
DU-145 = test system: DU-145
HL-60 = test system: HL-60
SK-MEL-5 = test system: SK-MEL-5
COLO 205 = test system: COLO 205
SNB-75 = test system: SNB-75
M14 = test system: M14
OVCAR-5 = test system: OVCAR-5
SF-295 = test system: SF-295
SNB-19 = test system: SNB-19
NCI-H226 = test system: NCI-H226
SF-268 = test system: SF-268
HT-29 = test system: HT-29
LOX IMVI = test system: LOX IMVI
SF-539 = test system: SF-539
HCT-15 = test system: HCT-15
NCI-H23 = test system: NCI-H23
IGROV-1 = test system: IGROV-1
SK-OV-3 = test system: SK-OV-3
TK-10 = test system: TK-10
OVCAR-3 = test system: OVCAR-3
KM12 = test system: KM12
SN12C = test system: SN12C
SR = test system: SR
BT-549 = test system: BT-549
OVCAR-8 = test system: OVCAR-8

Structure (SMILES): N#Cc1nc(CCC(c2nc(C#N)c(N)o2)N2C(=O)c3ccccc3C2=O)oc1N (centres undefined)
- GI50 (NCI-H460): > 100 µM (inactive)
- GI50 (UACC-257): > 100 µM (inactive)
- GI50 (A549): > 100 µM (inactive)
- GI50 (MDA-MB-435): > 100 µM (inactive)
- GI50 (SK-MEL-2): > 100 µM (inactive)
- GI50 (K562): 32.8 µM (inactive)
- GI50 (HOP-92): > 100 µM (inactive)
- GI50 (T47D): > 100 µM (inactive)
- GI50 (A498): > 100 µM (inactive)
- GI50 (PC-3): > 100 µM (inactive)
- GI50 (RPMI-8226): > 100 µM (inactive)
- GI50 (UO-31): > 100 µM (inactive)
- GI50 (RXF 393): > 100 µM (inactive)
- GI50 (OVCAR-4): 67.6 µM (inactive)
- GI50 (SW-620): > 100 µM (inactive)
- GI50 (CAKI-1): > 100 µM (inactive)
- GI50 (SK-MEL-28): > 100 µM (inactive)
- GI50 (NCI/ADR-RES): > 100 µM (inactive)
- GI50 (Malme-3M): > 100 µM (inactive)
- GI50 (NCI-H522): > 100 µM (inactive)
- GI50 (ACHN): > 100 µM (inactive)
- GI50 (786-0): > 100 µM (inactive)
- GI50 (HCC 2998): > 100 µM (inactive)
- GI50 (UACC-62): > 100 µM (inactive)
- GI50 (HCT-116): > 100 µM (inactive)
- GI50 (U-251): > 100 µM (inactive)
- GI50 (MDA-MB-231): > 100 µM (inactive)
- GI50 (Hs-578T): > 100 µM (inactive)
- GI50 (MDA-N): > 100 µM (inactive)
- GI50 (MOLT-4): 27.8 µM (inactive)
- GI50 (EKVX): > 100 µM (inactive)
- GI50 (CCRF-CEM): > 10 µM (inactive)
- GI50 (MCF7): > 100 µM (inactive)
- GI50 (HOP-62): > 100 µM (inactive)
- GI50 (DU-145): > 100 µM (inactive)
- GI50 (HL-60): > 100 µM (inactive)
- GI50 (SK-MEL-5): > 100 µM (inactive)
- GI50 (COLO 205): > 100 µM (inactive)
- GI50 (SNB-75): > 100 µM (inactive)
- GI50 (M14): > 100 µM (inactive)
- GI50 (OVCAR-5): > 100 µM (inactive)
- GI50 (SF-295): > 100 µM (inactive)
- GI50 (SNB-19): > 100 µM (inactive)
- GI50 (NCI-H226): > 100 µM (inactive)
- GI50 (SF-268): > 100 µM (inactive)
- GI50 (HT-29): > 100 µM (inactive)
- GI50 (LOX IMVI): > 100 µM (inactive)
- GI50 (SF-539): > 100 µM (inactive)
- GI50 (HCT-15): > 100 µM
- GI50 (NCI-H23): > 100 µM (inactive)
- GI50 (IGROV-1): > 100 µM (inactive)
- GI50 (SK-OV-3): > 100 µM (inactive)
- GI50 (TK-10): > 100 µM (inactive)
- GI50 (OVCAR-3): > 100 µM (inactive)
- GI50 (KM12): > 100 µM (inactive)
- GI50 (SN12C): > 100 µM (inactive)
- GI50 (SR): < 0.01 µM (active)

Structure (SMILES): CSc1n[nH]c2c1c(C)nn2-c1ccccc1
- GI50 (NCI-H460): > 100 µM (inactive)
- GI50 (UACC-257): > 100 µM (inactive)
- GI50 (A549): > 100 µM (inactive)
- GI50 (MDA-MB-435): > 100 µM (inactive)
- GI50 (SK-MEL-2): > 100 µM (inactive)
- GI50 (K562): > 100 µM (inactive)
- GI50 (HOP-92): > 100 µM (inactive)
- GI50 (PC-3): > 100 µM (inactive)
- GI50 (RPMI-8226): > 100 µM (inactive)
- GI50 (UO-31): > 100 µM (inactive)
- GI50 (RXF 393): > 100 µM (inactive)
- GI50 (OVCAR-4): > 100 µM (inactive)
- GI50 (SW-620): > 100 µM (inactive)
- GI50 (SK-MEL-28): > 100 µM (inactive)
- GI50 (HCC 2998): > 100 µM (inactive)
- GI50 (UACC-62): > 100 µM (inactive)
- GI50 (U-251): > 100 µM (inactive)
- GI50 (MOLT-4): > 100 µM (inactive)
- GI50 (EKVX): > 100 µM (inactive)
- GI50 (MCF7): > 100 µM (inactive)
- GI50 (HL-60): 71.3 µM (inactive)
- GI50 (SK-MEL-5): > 100 µM (inactive)
- GI50 (M14): > 100 µM (inactive)
- GI50 (OVCAR-5): > 100 µM (inactive)
- GI50 (SNB-19): > 100 µM (inactive)
- GI50 (NCI-H226): > 100 µM (inactive)
- GI50 (HT-29): > 100 µM (inactive)
- GI50 (SF-539): > 100 µM (inactive)
- GI50 (HCT-15): > 100 µM
- GI50 (NCI-H23): > 100 µM (inactive)
- GI50 (IGROV-1): > 100 µM (inactive)
- GI50 (SK-OV-3): > 100 µM (inactive)
- GI50 (TK-10): > 100 µM (inactive)
- GI50 (OVCAR-3): > 100 µM (inactive)
- GI50 (BT-549): > 100 µM (inactive)
- GI50 (SR): > 100 µM (inactive)

Structure (SMILES): C[n+]1c(-c2ccc(/C=N/NC(=O)C(=O)N/N=C/c3ccc(-c4cn5ccsc5[n+]4C)cc3)cc2)cn2ccsc21
- GI50 (NCI-H460): > 100 µM (inactive)
- GI50 (UACC-257): > 100 µM (inactive)
- GI50 (A549): > 100 µM (inactive)
- GI50 (MDA-MB-435): 48.2 µM (inactive)
- GI50 (K562): > 100 µM (inactive)
- GI50 (T47D): > 100 µM (inactive)
- GI50 (PC-3): > 100 µM (inactive)
- GI50 (RPMI-8226): 82.6 µM (inactive)
- GI50 (UO-31): > 100 µM (inactive)
- GI50 (OVCAR-4): > 100 µM (inactive)
- GI50 (SW-620): > 100 µM (inactive)
- GI50 (SK-MEL-28): 87.3 µM (inactive)
- GI50 (NCI/ADR-RES): > 100 µM (inactive)
- GI50 (NCI-H522): > 100 µM (inactive)
- GI50 (ACHN): > 100 µM (inactive)
- GI50 (786-0): > 100 µM (inactive)
- GI50 (HCC 2998): > 100 µM (inactive)
- GI50 (HCT-116): 92.5 µM (inactive)
- GI50 (U-251): > 100 µM (inactive)
- GI50 (MDA-MB-231): > 100 µM (inactive)
- GI50 (Hs-578T): > 100 µM (inactive)
- GI50 (MDA-N): 47.8 µM (inactive)
- GI50 (OVCAR-8): > 100 µM (inactive)
- GI50 (MOLT-4): > 100 µM (inactive)
- GI50 (EKVX): > 100 µM (inactive)
- GI50 (CCRF-CEM): > 100 µM (inactive)
- GI50 (MCF7): > 100 µM (inactive)
- GI50 (HOP-62): > 100 µM (inactive)
- GI50 (HL-60): > 100 µM (inactive)
- GI50 (SK-MEL-5): > 100 µM (inactive)
- GI50 (COLO 205): > 100 µM (inactive)
- GI50 (SNB-75): > 100 µM (inactive)
- GI50 (M14): > 100 µM (inactive)
- GI50 (OVCAR-5): > 100 µM (inactive)
- GI50 (SF-295): 53.5 µM (inactive)
- GI50 (SNB-19): > 100 µM (inactive)
- GI50 (SF-268): > 100 µM (inactive)
- GI50 (HT-29): > 100 µM (inactive)
- GI50 (SF-539): > 100 µM (inactive)
- GI50 (HCT-15): > 100 µM
- GI50 (IGROV-1): > 100 µM (inactive)
- GI50 (SK-OV-3): > 100 µM (inactive)
- GI50 (TK-10): > 100 µM (inactive)
- GI50 (KM12): > 100 µM (inactive)
- GI50 (SN12C): > 100 µM (inactive)
- GI50 (SR): > 100 µM (inactive)
